According to patent publication US20210025110A1, “ORGANIC ANTIMICROBIAL TEXTILE” (Livinguard AG, priority 2018, published 2021):

Legend:
P. aeruginosa ATCC 9027 = test: AATCC 100-2012 antimicrobial performance of treated textile, P. aeruginosa; assay type: cell-based
Description: (§1) Antimicrobial performance of antimicrobial textiles according to the invention were performed following the AATCC 100-2012 test method. The AATCC 100-2012 test procedure for antimicrobial performance is described in detail in AATCC Technical Manual 2013, p. 166-168. Briefly, 3 circular swatches of 48 mm diameter were prepared from autoclaved (121° C., 15 min) textile samples, and a defined number of swatches was added to a 250 ml Erlenmeyer flask. 1 ml of prepared inoculum (in phosphate buffered water) was spot onto the swatches. […] The 0 minute contact time was immediately analyzed after inoculation. For the other contact times, the Erlenmeyer flask was sealed immediately after inoculation and incubated at 37° C. for the respective contact times. After the defined contact time, 100 ml of Dey-Engley Neutralizing broth was added to each flask, and the flask was shaken for one minute by hand. A dilution series was prepared and each dilution sample was plated on a nutrient agar. Agar plates were incubated at 37° C. for 24 and 48 hours. The Log Reduction (R) of bacteria was calculated by: B[log(number bacteria recovered from the inoculated treated test specimen swatches in the jar immediately after inoculation, i.e. at 0 contact time)]−A[log(number of bacteria recovered from the inoculated treated test specimen swatches in the jar incubated over the desired contact period)].

S. aureus ATCC 6538 = test: AATCC 100-2012 antimicrobial performance of treated textile, S. aureus; assay type: cell-based, Staphylococcus aureus
Description: as §1

E. coli = test: AATCC 100-2012 antimicrobial performance of treated textile, E. coli; assay type: cell-based

| SMILES | Log Reduction (R) after 30 min, P. aeruginosa (P. aeruginosa ATCC 9027; Table 2, 100% viscose, L-carnitine, 0 or 10 washes per sample ID, 30 min contact) | reduction of P. aeruginosa after 30 minutes (P. aeruginosa ATCC 9027; Table 2 textiles, L-carnitine on viscose, 30 min) | Log Reduction (R) after 1 hour, S. aureus (S. aureus ATCC 6538; Table 1, 100% viscose, L-arginine, 10 washes, 1 hour contact) | reduction of S. aureus after 1 hour (S. aureus ATCC 6538; Table 1 textiles, L-arginine on viscose, 1 hour) | Log Reduction (R) after 10 min, P. aeruginosa (P. aeruginosa ATCC 9027; Table 1, 100% viscose, L-arginine, 10 washes, 10 min contact) | reduction of P. aeruginosa after 10 minutes (P. aeruginosa ATCC 9027; Table 1 textiles, L-arginine on viscose, 10 min) | reduction of E. coli after 24 hours (E. coli; Table 10, L-arginine 12% on cotton) | Log Reduction (R) after 24 hours against E. coli, wash cycle 0 (unwashed) (E. coli; Table 10, 100% cotton, L-arginine 120 gpl, liquor pH per sample ID, unwashed, 24 hours) |
| --- | --- | --- | --- | --- | --- | --- | --- | --- |
| C[N+](C)(C)C[C@H](O)CC(=O)O [L-carnitine] | 2.82 Log cfu/ml | > 99% | – | – | – | – | – | – |
| N=C(N)NCCC[C@H](N)C(=O)O [L-arginine] | – | – | about 1 Log cfu/ml | about 90% | 2.76 Log cfu/ml | > 99% | > 99.99% | > 4.41 Log cfu/ml |
